EC50 data for 15 compounds are collected here from patent publication US20210369853A1, “TARGETED PROTEASE DEGRADATION PLATFORM” (EUBULUS BIOTHERAPEUTICS INC., priority 2018, published 2021).

For orientation: EC50 means the midpoint of the concentration-response curve. Low readings indicate a more potent agent, high ones a less potent agent.

The subject of test [1] is Human Monocytic Leukemia MV4-11. Kind of test: Cell proliferation experiment (Alarm blue, 72 h, EC50). It is filed as cell-based. The note with it: Homo sapiens, MV4-11, MV4;11 cells. In a few lines:
(§1)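 EC50 values derive from Alamar blue fluorescence measured after cells in 96-well plates were incubated 72 h with compound diluted 5-fold per step in complete medium.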

Test [2] deals with Human cervical adenocarcinoma cells Hela. The description is as above. It is filed as cell-based. The following applies: Homo sapiens. A digest of the protocol:
as §1

As for `CC[C@@H]1c2c(C#N)ncn2-c2cnc(Nc3ccc(C(=O)NCCOCCOCCC(=O)Nc4cccc5c4CN(C4CCC(=O)NC4=O)C5=O)cc3OC)nc2N1C1CCCC1` (stereo partly drawn) [UB-180538], the EC50 in test [1] and in test [2] was greater than 1000 nM each time.
On to `CC[C@@H]1c2nncn2-c2cnc(Nc3ccc(C(=O)NCCCC(=O)N[C@H](C(=O)N4C[C@H](O)C[C@H]4C(=O)NCc4ccc(-c5scnc5C)cc4)C(C)(C)C)cc3OC)nc2N1C1CCCC1` [UB-180539], for which the 50% effective concentration (EC50) in test [1] is 10 to 100 nM; in test [2] it was greater than 1000 nM.
Regarding `CC[C@@H]1c2nncn2-c2cnc(Nc3ccc(C(=O)NCCOCC(=O)N[C@H](C(=O)N4C[C@H](O)C[C@H]4C(=O)NCc4ccc(-c5scnc5C)cc4)C(C)(C)C)cc3OC)nc2N1C1CCCC1` [UB-180540], the EC50 in test [1] and in test [2] was greater than 1000 nM in each case.
Regarding `CC[C@@H]1c2nncn2-c2cnc(Nc3ccc(C(=O)NCCCOCC(=O)N[C@H](C(=O)N4C[C@H](O)C[C@H]4C(=O)NCc4ccc(-c5scnc5C)cc4)C(C)(C)C)cc3OC)nc2N1C1CCCC1` [UB-180541], the half-maximal effective concentration (EC50) was 100 to 1000 nM in test [1] and greater than 1000 nM in test [2].
The like results for `CC[C@@H]1c2c(C#N)ncn2-c2cnc(Nc3ccc(C(=O)NCCCOCC(=O)N[C@H](C(=O)N4C[C@H](O)C[C@H]4C(=O)NCc4ccc(-c5scnc5C)cc4)C(C)(C)C)cc3OC)nc2N1C1CCCC1` [UB-180542] were, in that order, 100 to 1000 nM and greater than 1000 nM.
Consider `CC[C@@H]1c2c(C#N)ncn2-c2cnc(Nc3ccc(C(=O)NCCCC(=O)N[C@H](C(=O)N4C[C@H](O)C[C@H]4C(=O)NCc4ccc(-c5scnc5C)cc4)C(C)(C)C)cc3OC)nc2N1C1CCCC1` [UB-180543], for which the half-maximal effective concentration (EC50) was 10 to 100 nM in test [1] and greater than 1000 nM in test [2].
Consider `CC[C@@H]1c2c(C#N)ncn2-c2cnc(Nc3ccc(C(=O)NCCOCC(=O)N[C@H](C(=O)N4C[C@H](O)C[C@H]4C(=O)NCc4ccc(-c5scnc5C)cc4)C(C)(C)C)cc3OC)nc2N1C1CCCC1` [UB-180544], for which the figures for the EC50 in test [1] and in test [2] were 10 to 100 nM and greater than 1000 nM, respectively.
On to `CC[C@@H]1c2c(C#N)ncn2-c2cnc(Nc3ccc(C(=O)NCCOCCOCCOCC(=O)Nc4cccc5c4CN(C4CCC(=O)NC4=O)C5=O)cc3OC)nc2N1C1CCCC1` (stereo partly drawn) [UB-180545], for which the concentration for a half-maximal effect (EC50) in test [1] is 100 to 1000 nM; in test [2], greater than 1000 nM.
The like results for `CC[C@@H]1c2nncn2-c2cnc(Nc3ccc(C(=O)NCCOCCOCCOCC(=O)Nc4cccc5c4CN(C4CCC(=O)NC4=O)C5=O)cc3OC)nc2N1C1CCCC1` (stereo partly drawn) [UB-180546] were, in that order, greater than 1000 nM and greater than 1000 nM.
The like results for `CC[C@@H]1c2nncn2-c2cnc(Nc3ccc(C(=O)NCCOCCOCCC(=O)Nc4cccc5c4CN(C4CCC(=O)NC4=O)C5=O)cc3OC)nc2N1C1CCCC1` (stereo partly drawn) [UB-180547] were, in that order, greater than 1000 nM and greater than 1000 nM.
For `CC[C@@H]1c2c(C#N)ncn2-c2cnc(Nc3ccc(C(=O)NCCOCCOCCOCCC(=O)Nc4cccc5c4CN(C4CCC(=O)NC4=O)C5=O)cc3OC)nc2N1C1CCCC1` (stereo partly drawn) [UB-180548], the half-maximal effective concentration (EC50) in test [1] and in test [2] was greater than 1000 nM in each case.
For the compound `CC[C@@H]1c2nncn2-c2cnc(Nc3ccc(C(=O)NCCOCCOCCOCCC(=O)Nc4cccc5c4CN(C4CCC(=O)NC4=O)C5=O)cc3OC)nc2N1C1CCCC1` (stereo partly drawn) [UB-180549], the EC50 in test [1] and in test [2] was greater than 1000 nM throughout.
With `CC[C@@H]1c2nncn2-c2cnc(Nc3ccc(C(=O)NCCOCCOCCC(=O)N[C@H](C(=O)N4C[C@H](O)C[C@H]4C(=O)NCc4ccc(-c5scnc5C)cc4)C(C)(C)C)cc3OC)nc2N1C1CCCC1` [UB-180550], the EC50 in test [1] and in test [2] was greater than 1000 nM in each case.
`CC[C@@H]1c2c(C#N)ncn2-c2cnc(Nc3ccc(C(=O)NCCOCCOCCOCCOCCC(=O)Nc4cccc5c4CN(C4CCC(=O)NC4=O)C5=O)cc3OC)nc2N1C1CCCC1` (stereo partly drawn) [UB-180551]: the 50% effective concentration (EC50) in test [1] and in test [2] was greater than 1000 nM each time.
Consider `CC[C@@H]1c2c(C#N)ncn2-c2cnc(Nc3ccc(C(=O)NCCOCCOCCOCCOCCC(=O)N[C@H](C(=O)N4C[C@H](O)C[C@H]4C(=O)NCc4ccc(-c5scnc5C)cc4)C(C)(C)C)cc3OC)nc2N1C1CCCC1` [UB-180552], for which the EC50 in test [1] is 100 to 1000 nM; in test [2], greater than 1000 nM.
